Assay results as given in paper PMC12267471, “Discovery of natural scaffolds as HER2 inhibitors for breast cancer: virtual screening, molecular dynamics, and biological characterization with selectivity profiling” (Scientific Reports, 2025).

Assays:
BT-474 cells = test: Cell cycle analysis by PI flow cytometry, BT-474; format: cell-based, human; settings: BT-474, 3.5 µM, 24 h (control 59%)
Method: To evaluate liquiritin’s impact on cell cycle progression, a propidium iodide (PI)-based flow cytometry assay was performed using the Cell Cycle Analysis Kit (ab139418, Abcam) following the manufacturer’s protocol. BT-474 and SKBR3 cells were seeded into 100 mm culture plates at a density of 1 × 10^6 cells/plate in RPMI 1640 medium supplemented with 10% FBS and incubated overnight. To synchronize cells in the G1 phase, cultures were rinsed twice with PBS and maintained in serum-reduced medium (0.5% FBS) for 48 h. Synchronized cells were subsequently treated with liquiritin at concentrations equivalent to its respective IC50 values (determined via prior proliferation assays) in serum-free media for 24 h.
Post-treatment, cells were detached using trypsin, washed with ice-cold PBS, and fixed in 66% ethanol at 4 °C for 2 h. Fixed cells were rehydrated in PBS and stained with a freshly prepared PI solution (1 mg/mL PI, 5,500 U/mL RNase A in PBS) for 30 min at 4 °C in the dark. DNA content was quantified using a BD FACS Calibur flow cytometer (BD Biosciences, San Jose, CA), with 10,000 events analyzed per sample. Cell cycle phase distributions (G0/G1, S, G2/M) were calculated from histogram data generated by Cell Quest software (BD Biosciences). All assays were performed in triplicate to ensure reproducibility.

[1] = test system: HER2 protein in BT-474 cells; test: Western blot of p-HER2 and t-HER2, BT-474; format: cell-based, human; settings: BT-474, 5 µM, 72 h
Method: (§1) SKBR3 and BT-474 were plated in RPMI-1640 media, washed, and incubated for 72 h. They were lysed in cold lysis buffer, frozen, collected, sonicated, and centrifuged for 10 min under cooling. The stacking and resolving solutions for polyacrylamide gels were prepared using various solutions, including 30% acrylamide, 0.5 M Tris, 10% SDS, 10% Ammonium persulfate, and 0.005 mL TEMED in 3.4 mL water and 3.3 mL water respectively. The ReadyPrepTM protein extraction kit was used to extract total protein from samples. Protein concentration was determined using the Bradford Protein Assay Kit. Samples were mixed with Laemmli sample buffer, pH adjusted and boiled for five minutes at 95 °C before loading onto SDS-polyacrylamide gels. Proteins in each sample were mixed, boiled, and loaded onto SDS-polyacrylamide gels. They were separated using the SDS-PAGE method, using the TGX Stain-Free™ FastCast™ Acrylamide Kit and a Cleaver electrophoresis unit. Proteins were transferred from gels to PVDF membranes using transfer sandwiches. Filter paper, membrane, gel, and filter paper were stacked in a sandwich. Gels were blotted onto PVDF membranes via electrophoresis using a Bio-Rad Semi-dry Electroblotter for 30 min. […] The intensity of each band was quantitated using ImageLab.

FGFR1 = FGFR1 (Homo sapiens, UniProt P11362); test: SelectScreen Z'-LYTE kinase profiling; format: biochemical
Method: (§2) Liquiritin was screened at 0.1 µM dose against a panel of 15 human kinases using SelectScreen® kinase profiling services offered by ThermoFisher Scientific™ (Madison, WI, USA). The percent inhibition of Liquiritin was assessed against each kinase in an automated high-throughput screening system using the time-resolved fluorescence resonance energy transfer Z´-LYTE™ kinase assay. Technology overview, protocols, and assay conditions are accessible at https://x.gd/UgBBB.

EGFR (ErbB1) = EGFR (ErbB1) (Homo sapiens, UniProt P00533); test: SelectScreen Z'-LYTE kinase profiling; format: biochemical
Method: as §2

MET (cMet) = MET (cMet) (Homo sapiens, UniProt P08581); test: SelectScreen Z'-LYTE kinase profiling; format: biochemical
Method: as §2

PDGFRB (PDGFR beta) = PDGFRB (PDGFR beta) (Homo sapiens, UniProt P09619); test: SelectScreen Z'-LYTE kinase profiling; format: biochemical
Method: as §2

TYRO3 (RSE) = TYRO3 (RSE) (Homo sapiens, UniProt Q06418); test: SelectScreen Z'-LYTE kinase profiling; format: biochemical
Method: as §2

FLT1 (VEGFR1) = FLT1 (VEGFR1) (Homo sapiens, UniProt P17948); test: SelectScreen Z'-LYTE kinase profiling; format: biochemical
Method: as §2

KDR (VEGFR2) = KDR (VEGFR2) (Homo sapiens, UniProt P35968); test: SelectScreen Z'-LYTE kinase profiling; format: biochemical
Method: as §2

ERBB4 (HER4) = ERBB4 (HER4) (Homo sapiens, UniProt Q15303); test: SelectScreen Z'-LYTE kinase profiling; format: biochemical
Method: as §2

ROS1 = ROS1 (Homo sapiens, UniProt P08922); test: SelectScreen Z'-LYTE kinase profiling; format: biochemical
Method: as §2

KIT = KIT (Homo sapiens, UniProt P10721); test: SelectScreen Z'-LYTE kinase profiling; format: biochemical
Method: as §2

ERBB2 (HER2) = ERBB2 (HER2) (Homo sapiens, UniProt P04626); test: SelectScreen Z'-LYTE kinase profiling; format: biochemical
Method: as §2

RET = RET (Homo sapiens, UniProt P07949); test: SelectScreen Z'-LYTE kinase profiling; format: biochemical
Method: as §2

ALK = ALK (Homo sapiens, UniProt Q9UM73); test: SelectScreen Z'-LYTE kinase profiling; format: biochemical
Method: as §2

IGF1R = IGF1R (Homo sapiens, UniProt P08069); test: SelectScreen Z'-LYTE kinase profiling; format: biochemical
Method: as §2

MST1R (RON) = MST1R (RON) (Homo sapiens, UniProt Q04912); test: SelectScreen Z'-LYTE kinase profiling; format: biochemical
Method: as §2

[2] = test system: HER2 protein in SKBR3 cells; test: Western blot of p-HER2 and t-HER2, SKBR3; format: cell-based, human; settings: SKBR3, 10 µM, 72 h
Method: as §1

ERBB2 (HER2), sequence (P04626 23-1255): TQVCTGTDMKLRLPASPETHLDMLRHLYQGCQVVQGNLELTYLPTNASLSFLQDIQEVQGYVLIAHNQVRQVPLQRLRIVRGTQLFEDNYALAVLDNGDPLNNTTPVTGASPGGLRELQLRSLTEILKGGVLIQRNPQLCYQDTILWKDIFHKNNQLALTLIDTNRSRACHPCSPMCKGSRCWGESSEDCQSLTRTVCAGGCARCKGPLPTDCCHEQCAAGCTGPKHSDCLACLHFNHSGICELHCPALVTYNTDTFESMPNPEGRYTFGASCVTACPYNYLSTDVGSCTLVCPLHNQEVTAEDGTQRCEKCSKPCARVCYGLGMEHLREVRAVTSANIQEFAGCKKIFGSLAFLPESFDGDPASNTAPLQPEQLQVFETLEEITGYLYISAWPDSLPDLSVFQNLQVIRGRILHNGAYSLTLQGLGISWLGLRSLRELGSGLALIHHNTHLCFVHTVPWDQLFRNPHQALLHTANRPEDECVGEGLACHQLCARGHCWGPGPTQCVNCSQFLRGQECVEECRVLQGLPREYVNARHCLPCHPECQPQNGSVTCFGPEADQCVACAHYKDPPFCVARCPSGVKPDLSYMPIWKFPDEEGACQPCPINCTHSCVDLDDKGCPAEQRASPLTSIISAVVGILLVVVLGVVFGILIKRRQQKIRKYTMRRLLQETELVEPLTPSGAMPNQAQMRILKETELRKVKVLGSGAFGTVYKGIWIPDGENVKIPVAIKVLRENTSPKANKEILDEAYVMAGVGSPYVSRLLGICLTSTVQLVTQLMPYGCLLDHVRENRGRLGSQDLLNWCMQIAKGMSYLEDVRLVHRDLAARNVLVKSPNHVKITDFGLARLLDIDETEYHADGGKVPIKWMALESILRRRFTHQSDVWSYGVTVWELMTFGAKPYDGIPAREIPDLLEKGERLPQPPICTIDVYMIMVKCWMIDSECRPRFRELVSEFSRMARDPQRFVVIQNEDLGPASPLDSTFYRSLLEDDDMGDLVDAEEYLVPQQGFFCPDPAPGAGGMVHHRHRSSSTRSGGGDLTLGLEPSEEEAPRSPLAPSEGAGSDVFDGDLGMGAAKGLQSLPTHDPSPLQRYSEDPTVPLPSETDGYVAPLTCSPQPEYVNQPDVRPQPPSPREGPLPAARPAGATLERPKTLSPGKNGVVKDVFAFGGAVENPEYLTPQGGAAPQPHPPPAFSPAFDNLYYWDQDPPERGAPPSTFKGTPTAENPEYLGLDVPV
EGFR (ErbB1), sequence (P00533 25-1210): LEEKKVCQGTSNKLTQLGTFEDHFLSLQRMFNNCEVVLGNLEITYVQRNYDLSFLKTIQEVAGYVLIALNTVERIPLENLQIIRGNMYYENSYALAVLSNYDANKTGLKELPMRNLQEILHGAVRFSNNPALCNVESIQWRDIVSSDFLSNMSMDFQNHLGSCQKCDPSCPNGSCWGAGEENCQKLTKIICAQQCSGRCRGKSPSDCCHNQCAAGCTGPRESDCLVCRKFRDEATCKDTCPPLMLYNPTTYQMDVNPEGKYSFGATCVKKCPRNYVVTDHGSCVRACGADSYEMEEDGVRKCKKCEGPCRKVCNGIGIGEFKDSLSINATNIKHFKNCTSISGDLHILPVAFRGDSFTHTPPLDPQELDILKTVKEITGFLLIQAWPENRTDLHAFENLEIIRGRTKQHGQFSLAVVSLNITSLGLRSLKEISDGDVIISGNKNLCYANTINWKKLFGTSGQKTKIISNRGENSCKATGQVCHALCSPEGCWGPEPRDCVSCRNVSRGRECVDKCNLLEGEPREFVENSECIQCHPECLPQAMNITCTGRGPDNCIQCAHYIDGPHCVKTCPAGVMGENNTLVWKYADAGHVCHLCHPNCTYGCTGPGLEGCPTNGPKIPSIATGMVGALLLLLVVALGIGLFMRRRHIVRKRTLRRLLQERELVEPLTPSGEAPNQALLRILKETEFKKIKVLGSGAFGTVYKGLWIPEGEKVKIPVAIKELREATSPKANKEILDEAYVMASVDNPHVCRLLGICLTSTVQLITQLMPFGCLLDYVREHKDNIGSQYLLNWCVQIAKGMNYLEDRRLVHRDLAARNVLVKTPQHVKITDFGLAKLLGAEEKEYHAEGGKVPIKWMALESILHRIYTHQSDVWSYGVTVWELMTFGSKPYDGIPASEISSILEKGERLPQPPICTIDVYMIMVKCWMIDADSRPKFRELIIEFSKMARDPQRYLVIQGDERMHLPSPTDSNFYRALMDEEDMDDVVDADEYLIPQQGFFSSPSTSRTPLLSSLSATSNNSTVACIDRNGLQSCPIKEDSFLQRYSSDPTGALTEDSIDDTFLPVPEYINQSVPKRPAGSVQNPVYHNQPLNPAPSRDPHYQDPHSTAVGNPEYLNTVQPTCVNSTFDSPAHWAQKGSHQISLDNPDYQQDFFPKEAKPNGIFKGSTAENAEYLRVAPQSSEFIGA
ERBB4 (HER4), sequence (Q15303 26-1308): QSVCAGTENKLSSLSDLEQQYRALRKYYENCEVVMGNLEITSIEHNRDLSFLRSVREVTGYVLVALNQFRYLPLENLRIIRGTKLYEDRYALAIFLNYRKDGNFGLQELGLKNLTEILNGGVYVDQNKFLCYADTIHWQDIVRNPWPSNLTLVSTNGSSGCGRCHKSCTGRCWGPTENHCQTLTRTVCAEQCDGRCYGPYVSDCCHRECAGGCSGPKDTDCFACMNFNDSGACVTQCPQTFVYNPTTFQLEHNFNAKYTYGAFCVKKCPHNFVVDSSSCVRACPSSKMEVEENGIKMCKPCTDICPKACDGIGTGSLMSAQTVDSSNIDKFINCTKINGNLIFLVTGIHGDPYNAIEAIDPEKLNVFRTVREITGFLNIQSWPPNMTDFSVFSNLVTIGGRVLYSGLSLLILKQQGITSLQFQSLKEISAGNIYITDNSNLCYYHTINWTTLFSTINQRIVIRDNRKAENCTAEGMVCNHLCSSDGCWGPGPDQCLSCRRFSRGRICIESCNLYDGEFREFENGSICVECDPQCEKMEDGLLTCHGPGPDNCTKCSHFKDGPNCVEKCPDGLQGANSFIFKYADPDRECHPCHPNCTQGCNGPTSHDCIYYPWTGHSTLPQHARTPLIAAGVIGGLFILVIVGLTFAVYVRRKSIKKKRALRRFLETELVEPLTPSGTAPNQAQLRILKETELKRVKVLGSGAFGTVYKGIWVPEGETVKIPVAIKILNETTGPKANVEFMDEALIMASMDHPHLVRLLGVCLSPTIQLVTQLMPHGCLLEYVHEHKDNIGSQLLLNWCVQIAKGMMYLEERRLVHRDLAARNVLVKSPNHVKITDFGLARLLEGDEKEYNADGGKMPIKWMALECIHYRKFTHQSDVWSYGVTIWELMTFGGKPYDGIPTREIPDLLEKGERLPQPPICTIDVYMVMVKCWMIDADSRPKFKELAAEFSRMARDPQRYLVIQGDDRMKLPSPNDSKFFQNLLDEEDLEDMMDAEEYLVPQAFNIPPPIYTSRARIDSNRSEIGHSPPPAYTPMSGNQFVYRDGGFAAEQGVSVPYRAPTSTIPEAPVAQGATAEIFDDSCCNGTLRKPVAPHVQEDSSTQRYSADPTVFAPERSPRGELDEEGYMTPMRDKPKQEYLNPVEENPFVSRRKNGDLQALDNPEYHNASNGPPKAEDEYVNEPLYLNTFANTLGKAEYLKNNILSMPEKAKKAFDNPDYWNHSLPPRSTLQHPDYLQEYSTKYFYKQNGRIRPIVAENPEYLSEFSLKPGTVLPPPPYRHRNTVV
TYRO3 (RSE), sequence (Q06418 41-890): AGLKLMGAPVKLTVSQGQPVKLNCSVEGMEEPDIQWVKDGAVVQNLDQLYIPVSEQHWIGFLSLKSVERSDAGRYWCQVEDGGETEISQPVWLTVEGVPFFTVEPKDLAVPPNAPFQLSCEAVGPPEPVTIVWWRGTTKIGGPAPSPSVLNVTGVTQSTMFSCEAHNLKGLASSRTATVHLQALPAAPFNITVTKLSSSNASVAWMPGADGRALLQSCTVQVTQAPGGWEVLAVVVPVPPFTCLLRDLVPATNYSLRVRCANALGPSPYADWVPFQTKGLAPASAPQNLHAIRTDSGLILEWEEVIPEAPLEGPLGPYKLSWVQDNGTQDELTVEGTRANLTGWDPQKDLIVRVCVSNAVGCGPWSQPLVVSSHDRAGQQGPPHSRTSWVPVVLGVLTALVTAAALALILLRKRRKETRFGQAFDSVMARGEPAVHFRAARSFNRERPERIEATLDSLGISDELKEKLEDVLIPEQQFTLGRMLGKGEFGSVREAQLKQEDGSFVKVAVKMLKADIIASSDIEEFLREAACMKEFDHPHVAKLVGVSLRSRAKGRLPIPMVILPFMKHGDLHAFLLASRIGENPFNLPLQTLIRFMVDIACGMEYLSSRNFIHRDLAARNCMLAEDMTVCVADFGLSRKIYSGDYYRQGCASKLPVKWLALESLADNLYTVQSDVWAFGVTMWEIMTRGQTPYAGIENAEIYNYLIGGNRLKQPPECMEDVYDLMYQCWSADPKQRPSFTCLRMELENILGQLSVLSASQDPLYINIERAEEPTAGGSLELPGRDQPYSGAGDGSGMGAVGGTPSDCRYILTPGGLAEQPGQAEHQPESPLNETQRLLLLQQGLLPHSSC

inhibition at 0.1 µM (FGFR1): 7% | inhibition at 0.1 µM (EGFR (ErbB1)): > 80% | Mean inhibition (%) (EGFR (ErbB1); 0.1 µM): 99% | inhibition at 0.1 µM (MET (cMet)): 5% | inhibition at 0.1 µM (PDGFRB (PDGFR beta)): 4% | inhibition at 0.1 µM (TYRO3 (RSE)): 5% | inhibition at 0.1 µM (FLT1 (VEGFR1)): 2% | inhibition at 0.1 µM (KDR (VEGFR2)): 4% | inhibition at 0.1 µM (ERBB4 (HER4)): > 80% | Mean inhibition (%) (ERBB4 (HER4); 0.1 µM): 88% | inhibition at 0.1 µM (ROS1): 8% | inhibition at 0.1 µM (KIT): 0% | inhibition at 0.1 µM (ERBB2 (HER2)): > 80% | Mean inhibition (%) (ERBB2 (HER2); 0.1 µM): 92% | inhibition at 0.1 µM (RET): 2% | inhibition at 0.1 µM (ALK): 7% | inhibition at 0.1 µM (IGF1R): 4% | inhibition at 0.1 µM (MST1R (RON)): 7%
SMILES: O=C1C[C@@H](c2ccc(O[C@@H]3O[C@H](CO)[C@@H](O)[C@H](O)[C@H]3O)cc2)Oc2cc(O)ccc21 [Liquiritin]
proportion of cells in G1 phase (BT-474 cells): ~88% | total expression levels of HER2 protein [1]: comparable suppressive effects | HER2 phosphorylation ([1]; vs vehicle): significantly inhibited HER2 phosphorylation | total expression levels of HER2 protein [2]: comparable suppressive effects | HER2 phosphorylation ([2]; vs vehicle): significantly inhibited HER2 phosphorylation
